In patent publication US20260191861A1, “INFLAMMASOME AND VEGF INHIBITION FOR RETINAL VASCULAR DISEASES” (University of Virginia Patent Foundation, priority 2022, published 2026):
“Also recorded” adds a separate entry of the source.

How the values were obtained:
[1] = system: participants with diabetic macular edema; assay: Retinal central subfield thickness by spectral-domain OCT, including synthetic controls from DRCR.net Protocol T; assay type: in vivo, human; settings: for IPTW mixed-effect model: change in central subfield thickness, Treatment × week [8] estimate / Mixed-effect model: change in central subfield thickness, Treatment × week [8] estimate: interaction term; for IPTW mixed-effect model: change in central subfield thickness from baseline, treatment estimate (ref = Placebo) / Mixed-effect model: change in central subfield thickness from baseline, treatment estimate (ref = Placebo): main effect (week 4); for Mixed-effect model: change in central subfield thickness, Treatment × week [8] estimate / Mixed-effect model: change in central subfield thickness from baseline, treatment estimate (ref = Placebo): unweighted model
Experimental: (§1) Propensity score methods were used to select DRCR.net Protocol T study participants similar to lamivudine-treated patients. Inverse probability treatment weights (IPTW) and propensity score matching were used. To estimate the IPTW weights, a multinomial logistic regression was used to estimate propensity scores using important predictors including baseline visual acuity and baseline central subfield thickness along with age, gender, and duration of diabetes. Weights were calculated as the reciprocal of the estimated propensity score of the actual treatment received. Weights were then truncated at the 99th percentile. For the propensity score matched analysis, lamivudine-treated patients were matched to each DRCR.net Protocol T treatment arm (aflibercept, bevacizumab, ranibizumab) and placebo group, separately. Due to the limited sample size for matching within each group, propensity score models included the most important predictors of acuity change including baseline visual acuity, age and duration of diabetes.
(§2) For the IPTW analysis, a mixed-effects weighted model was fit with subject-specific random effects. […] The model's estimates, confidence intervals (CI), and P values were reported for each predictor. Additionally, model-based contrasts were conducted to compare the change in VALS from baseline between lamivudine and the Protocol T treatments.
(§3) Secondary outcomes included the change in central subfield thickness, the percentage of eyes with an improvement in VALS of 15 or more, the correlation between improvements in visual acuity and central subfield thickness, and systemic and ocular adverse events. Change in central subfield thickness was estimated using mixed-effects models, similar to the VALS analysis. To analyze a VALS improvement of at least 15 letters, logistic regression using generalized estimating equations (GEEs) was specified with an exchangeable correlation matrix. Model-based contrasts were estimated to make pairwise treatment comparisons.
In all consultations, patients underwent tomography with the Spectralis device (Heidelberg) under mydriasis. The acquisition protocol was the 6×6 mm region centered on the fovea. Data analysis from SD-OCT was restricted to the central field (1 mm in diameter) Intravitreous Injection of Anti-VEGF

[2] = system: participants with diabetic macular edema; assay: Visual acuity (VALS) compared with synthetic controls from the DRCR.net Protocol T study (IPTW, propensity score matching, GEE); assay type: in vivo, human
From the text: The second analysis included participants from the lamivudine versus placebo trial, along with a synthetic comparator created using data from the DRCR.net Protocol T study. The source of the data is DRCR.net (2018) A Comparative Effectiveness Study of Intravitreal Aflibercept, Bevacizumab and Ranibizumab for Diabetic Macular Edema, retrieved from https://public.jaeb.org/drcrnet/stdy/download/206. The analyses, content, and conclusions presented herein are solely the responsibility of the authors and have not been reviewed or approved by DRCR.net.
Inclusion criteria for participants from the DRCR.net Protocol T study were based on their similarity to the lamivudine versus placebo trial design. This involved selecting only patients with type 2 diabetes, study eyes with a baseline VALS<69, and complete follow-up visual acuity measurements at weeks 4 and 8.
as §1, §2
For each propensity score matched group (e.g., lamivudine-bevacizumab, lamivudine-aflibercept), a mixed effect model was fit estimating the change in visual acuity from baseline. Subject specific random effect was included along with fixed effect predictors: treatment group, baseline VALS, central subfield thickness, eye (left vs right), age, sex, race and type 2 diabetes duration.
as §3

[3] = system: participants with diabetic macular edema; settings: week 8, synthetic controls of DRCR.net Protocol T; cited from earlier work
[4] = system: participants with diabetic macular edema; settings: week 8, included DRCR.net Protocol T patients (synthetic controls); cited from earlier work
[5] = system: caspase-1; assay: Rhegmatogenous retinal detachment (RRD) model: retinal caspase-1 cleavage by immunoblot; assay type: in vivo, mouse
Experimental: (§4) All experiments involving animals were approved by the University of Virginia Institutional Animal Care and Use Committee (IACUC) and adhered to the Association for Research in Vision and Ophthalmology (ARVO) Statement for the Use of Animals in Ophthalmic and Vision Research. Animal subjects were male and female mice aged 6 to 10 weeks. Wild type C57BL/6J mice were obtained from the Jackson Laboratory (Bar Harbor, ME, USA). To anesthetize mice for study procedures, ketamine hydrochloride (100 mg/kg; Ft. Dodge Animal Health, Overland Park, KS, USA) and xylazine (10 mg/kg; Phoenix Scientific, St. Joseph, MO, USA) were delivered by intraperitoneal (IP) injection. Pupils were dilated with topical 1% tropicamide and 2.5% phenylephrine (Alcon Laboratories, Ft. Worth, TX, USA).
(§5) RRD model was established by subretinal injection (SRI) of 3 μl 1% carboxymethyl cellulose (CMC; Refresh Liquigel, Allergan, Irvine, CA, USA).
(§6) NRTIs and K-9 were delivered via intraperitoneal (IP) injection in equimolar amounts. […] Kamuvudine K-9 (3-methyl-3TC, MW=273 g/mol) was administered either at a low dose (K-9L; 90 mg/kg daily) or a high dose (K-9H; 60 mg/kg twice daily, equimolar to NRTI doses). IP injection of phosphate buffered saline (PBS) was used as control.
Retinal tissue was extracted and lysed by sonication in radioimmunoprecipitation assay (RIPA) buffer (MilliporeSigma, Darmstadt, Germany). The Pierce BCA Protein Assay Kit (ThermoFisher Scientific, Waltham, MA, USA) was used to determine protein concentrations of interest. Samples were prepared that contained equal concentrations of total protein (10-100 μg). Protein samples were resolved by SDS-PAGE and transferred onto Immobilon-FL PVDF membranes (Millipore, Billerica, MA, USA). Membranes were blocked in Odyssey Blocking Buffer (PBS) for 1 hour at room temperature, and then incubated overnight with primary antibody at 4° C. Across study experiments, the following antibodies were used: anti-mouse caspase-1 (1:1000; AG-20B-0042; AdipoGen Life Sciences, San Diego, CA, USA), and anti-mouse GAPDH (1:1000; 2118; Cell Signaling, Danvers, MA, USA). […]

[6] = system: photoreceptors (TUNEL+ cells in the ONL); assay: RRD model: TUNEL assay of the retinal outer nuclear layer; assay type: in vivo, mouse
Experimental: as §4, §5, §6
Retinal cross cryosections at a thickness of 10 μm were stained with TUNEL (TdT-mediated dUTP nick-end labeling) using the In Situ Cell Death Detection Kit (Roche Diagnostics, Indianapolis, IN, USA) according to the manufacturer's′ instructions. The sections were wet-mounted with ProLong anti-fade reagent with DAPI (P36935, ThermoFisher Scientific, Waltham, MA, USA) and visualized using an A1R laser confocal microscope (Nikon, Tokyo, Japan). Fourteen representative sections, including the optic nerve, were used per treatment group. To calculate the number of TUNEL+ cells in the outer nuclear layer (ONL), the retina analysis toolkit of ImageJ (2.1.0; NIH, Bethesda, MD, USA) was used.

[7] = IPTW model with synthetic controls
[8] = Original (unweighted) model with synthetic controls
[9] = day 3 RRD, equimolar IP doses twice daily (K-9H 60 mg/kg, 3TC 50 mg/kg)
[10] = three days after inducing RRD, IP treatment

Substance | IPTW mixed-effect model: change in central subfield thickness, Treatment × week [8] estimate [1] | IPTW mixed-effect model: change in central subfield thickness from baseline, treatment estimate (ref = Placebo) [1] | Mixed-effect model: change in central subfield thickness, Treatment × week [8] estimate [1] | Mixed-effect model: change in central subfield thickness from baseline, treatment estimate (ref = Placebo) [1] | GEE model: odds ratio of change in VALS from baseline ≥15 (ref = Placebo) ([2]; IPTW model) | Mixed effect model: change from baseline visual acuity, treatment estimate (ref: Placebo) [2, 7] | Mixed effect model: change from baseline visual acuity, treatment estimate (ref: Placebo) ([2]; IPTW model with synthetic controls, listed as ranibizumab) | Mixed effect model: change from baseline visual acuity, treatment estimate (ref: Placebo) [2, 8] | GEE model: odds ratio of change in VALS from baseline ≥15 (ref = Placebo) ([2]; Original model) | percentage of eyes with VALS improvement of 15 or more that had minimal change in central subfield thickness (≤50 μm) [3] | percentage of eyes with improvement in VALS of 15 or more [4] | degree of suppression of caspase-1 activation [5, 9] | retinal cleaved caspase-1 compared with PBS-treated mice [5, 10] | degree of photoreceptor protection [6, 9] | number of TUNEL+ cells in the ONL of the retina compared with PBS-treatment [6, 10] | Mixed effect model: change from baseline visual acuity, treatment estimate (ref: Placebo) ([2]; IPTW model with synthetic controls, listed as aflibercept) | Mixed effect model: change from baseline visual acuity, treatment estimate (ref: Placebo) ([2]; IPTW model with synthetic controls, listed as bevacizumab)
Ranibizumab: inhibitor of vascular endothelial growth factor (VEGF), intravitreous | 75 μm | −113.67 μm | 85.69 μm | −122.12 μm | 19.96 | 7.12 | 7.1 | 7.04 | 11.14 | 41% | 34% | – | – | – | – | – | –
3-methyl-3TC [K-9] | – | – | – | – | – | – | – | – | – | – | – | 84%+1% | dose-dependent and complete reduction; also recorded: inhibits RRD-induced caspase-1 cleavage | 56%+7% | dose-dependent reduction; also recorded: protects photoreceptors | – | –
Aflibercept: inhibitor of vascular endothelial growth factor (VEGF), intravitreous | 68.54 μm | −104.33 μm | 74.83 μm | −114.55 μm | 19.39 | 8.42 | – | 8.48 | 11.15 | 42% | 38% | – | – | – | – | 8.4 | –
Bevacizumab: inhibitor of vascular endothelial growth factor (VEGF), intravitreous | 74.82 μm | −66.35 μm | 84.87 μm | −75.55 μm | 10.33 | 5.32 | – | 5.36 | 6.15 | 29% | 24% | – | – | – | – | – | 5.3
